Reference: patent US10590113B2, “6-hydroxy-4-oxo-1,4-dihydropyrimidine-5-carboxamides as APJ agonists” (priority 2016, dated 2020)

molecular target: T1, human APJ receptor (Homo sapiens, UniProt P35414); assay: Intracellular cAMP Accumulation Assay (APJ hcAMP, HTRF); type: cell-based; details: human APJ, cAMP accumulation; potency range class; read-out: hAPJ cAMP EC50 Potency range
T1 construct: expressed in transfected cells; host or cells: HEK293
T1 sequence (P35414 1-380): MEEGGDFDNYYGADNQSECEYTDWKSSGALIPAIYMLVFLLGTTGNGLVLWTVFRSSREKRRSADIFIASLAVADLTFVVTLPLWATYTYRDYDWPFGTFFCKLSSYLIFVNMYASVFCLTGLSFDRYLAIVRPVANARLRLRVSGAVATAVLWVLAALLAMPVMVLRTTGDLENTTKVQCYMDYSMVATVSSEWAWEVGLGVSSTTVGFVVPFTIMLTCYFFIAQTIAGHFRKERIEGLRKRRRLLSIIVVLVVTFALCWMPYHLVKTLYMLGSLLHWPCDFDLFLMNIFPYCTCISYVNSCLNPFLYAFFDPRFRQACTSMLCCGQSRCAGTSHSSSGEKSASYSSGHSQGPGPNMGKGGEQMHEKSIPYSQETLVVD
How it was run: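 Stably transfected HEK293 cells (5,000/well) incubated 30 min at room temperature with serially diluted compound, […] and 2 μM forskolin. cAMP measured by HTRF after 60 min with detection reagents, quantified against a cAMP standard curve; EC50 from variable-slope sigmoidal fit of inhibition of forskolin-stimulated cAMP.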

EC50, 0.01 to 10 nM:
COc1cccc(OC)c1-n1c(-c2cccc(Cl)c2)nc(=O)c(C(=O)N2CCC(c3ncc(F)cc3F)C2)c1O (single isomer, unassigned) [Example 238, 2-(3-chlorophenyl)-5-[3-(3,5-difluoropyridin-2-yl)pyrrolidine-1-carbonyl]-1-(2,6-dimethoxyphenyl)-6-hydroxy-1,4-dihydropyrimidin-4-one]
COc1cccc(OC)c1-n1c(-c2cc(C)ccn2)nc(=O)c(C(=O)N2CCC(c3ccccc3F)C2)c1O (single isomer, unassigned) [Example 239, 1-(2,6-dimethoxyphenyl)-5-[3-(2-fluorophenyl)pyrrolidine-1-carbonyl]-6-hydroxy-2-(4-methylpyridin-2-yl)-1,4-dihydropyrimidin-4-one]
COc1cccc(OC)c1-n1c(-c2cccc(C)c2)nc(=O)c(C(=O)N2CCC(c3c(F)cccc3F)C2)c1O (single isomer, unassigned) [Example 241, 5-[3-(2,6-difluorophenyl)pyrrolidine-1-carbonyl]-1-(2,6-dimethoxyphenyl)-6-hydroxy-2-(3-methylphenyl)-1,4-dihydropyrimidin-4-one]
COc1cccc(OC)c1-n1c(-c2cccc(C)c2)nc(=O)c(C(=O)N2CCC(c3ccccc3C#N)C2)c1O (single isomer, unassigned) [Example 242, 2-{1-[1-(2,6-dimethoxyphenyl)-6-hydroxy-2-(3-methylphenyl)-4-oxo-1,4-dihydropyrimidine-5-carbonyl]pyrrolidin-3-yl}benzonitrile]
COc1cccc(OC)c1-n1c(-c2cncc(Cl)c2)nc(=O)c(C(=O)N2CCC(c3ccccc3C#N)C2)c1O (single isomer, unassigned) [Example 243, 2-{1-[2-(5-chloropyridin-3-yl)-1-(2,6-dimethoxyphenyl)-6-hydroxy-4-oxo-1,4-dihydropyrimidine-5-carbonyl]pyrrolidin-3-yl}benzonitrile]
COc1cccc(OC)c1-n1c(-c2cccc(C)c2)nc(=O)c(C(=O)N2CCC(c3ncc(F)cc3F)C2)c1O (single isomer, unassigned) [Example 244, 5-[3-(3,5-difluoropyridin-2-yl)pyrrolidine-1-carbonyl]-1-(2,6-dimethoxyphenyl)-6-hydroxy-2-(3-methylphenyl)-1,4-dihydropyrimidin-4-one]
COc1cccc(-c2nc(=O)c(C(=O)N3CCC(c4ncccc4F)C3)c(O)n2-c2c(OC)cccc2OC)c1 (single isomer, unassigned) [Example 245, 1-(2,6-dimethoxyphenyl)-5-[3-(3-fluoropyridin-2-yl)pyrrolidine-1-carbonyl]-6-hydroxy-2-(3-methoxyphenyl)-1,4-dihydropyrimidin-4-one]
COc1cccc(-c2nc(=O)c(C(=O)N3CCC(c4ncc(F)cc4F)C3)c(O)n2-c2c(OC)cccc2OC)c1 (single isomer, unassigned) [Example 246, 5-[3-(3,5-difluoropyridin-2-yl)pyrrolidine-1-carbonyl]-1-(2,6-dimethoxyphenyl)-6-hydroxy-2-(3-methoxyphenyl)-1,4-dihydropyrimidin-4-one]
COc1cccc(OC)c1-n1c(-c2cncc(Cl)c2)nc(=O)c(C(=O)N2CCC(c3c(F)cccc3F)C2)c1O (single isomer, unassigned) [Example 247, 2-(5-chloropyridin-3-yl)-5-[3-(2,6-difluorophenyl)pyrrolidine-1-carbonyl]-1-(2,6-dimethoxyphenyl)-6-hydroxy-1,4-dihydropyrimidin-4-one]
COc1cccc(OC)c1-n1c(-c2cnn(C)c2)nc(=O)c(C(=O)N2CCC(c3c(F)cccc3F)C2)c1O (single isomer, unassigned) [Example 249, 5-[3-(2,6-difluorophenyl)pyrrolidine-1-carbonyl]-1-(2,6-dimethoxyphenyl)-6-hydroxy-2-(1-methyl-1H-pyrazol-4-yl)-1,4-dihydropyrimidin-4-one]
COc1cccc(OC)c1-n1c(-c2ccn(C)n2)nc(=O)c(C(=O)N2CCC(c3c(F)cccc3F)C2)c1O (single isomer, unassigned) [Example 251, 5-[3-(2,6-difluorophenyl)pyrrolidine-1-carbonyl]-1-(2,6-dimethoxyphenyl)-6-hydroxy-2-(1-methyl-1H-pyrazol-3-yl)-1,4-dihydropyrimidin-4-one]
COc1cccc(OC)c1-n1c(-c2ccc(C)nc2)nc(=O)c(C(=O)N2CCC(c3c(F)cccc3F)C2)c1O (single isomer, unassigned) [Example 252, 5-[3-(2,6-difluorophenyl)pyrrolidine-1-carbonyl]-1-(2,6-dimethoxyphenyl)-6-hydroxy-2-(6-methylpyridin-3-yl)-1,4-dihydropyrimidin-4-one]
COc1cccc(OC)c1-n1c(-c2ccnc(C)c2)nc(=O)c(C(=O)N2CCC(c3ccc(F)cc3F)C2)c1O (single isomer, unassigned) [Example 254, 5-[3-(2,4-difluorophenyl)pyrrolidine-1-carbonyl]-1-(2,6-dimethoxyphenyl)-6-hydroxy-2-(2-methylpyridin-4-yl)-1,4-dihydropyrimidin-4-one]
COc1cccc(OC)c1-n1c(-c2ccc(F)c(C)c2)nc(=O)c(C(=O)N2CCC(c3ncccc3F)C2)c1O (single isomer, unassigned) [Example 255, 1-(2,6-dimethoxyphenyl)-2-(4-fluoro-3-methylphenyl)-5-[3-(3-fluoropyridin-2-yl)pyrrolidine-1-carbonyl]-6-hydroxy-1,4-dihydropyrimidin-4-one]
COc1cccc(OC)c1-n1c(-c2ccc(F)c(C)c2)nc(=O)c(C(=O)N2CCC(c3ncc(F)cc3F)C2)c1O (single isomer, unassigned) [Example 256, 5-[3-(3,5-difluoropyridin-2-yl)pyrrolidine-1-carbonyl]-1-(2,6-dimethoxyphenyl)-2-(4-fluoro-3-methylphenyl)-6-hydroxy-1,4-dihydropyrimidin-4-one]
COc1cccc(OC)c1-n1c(-c2ccnc(C)c2)nc(=O)c(C(=O)N2CCC(c3c(F)cccc3F)C2)c1O (single isomer, unassigned) [Example 257, 5-[3-(2,6-difluorophenyl)pyrrolidine-1-carbonyl]-1-(2,6-dimethoxyphenyl)-6-hydroxy-2-(2-methylpyridin-4-yl)-1,4-dihydropyrimidin-4-one]
COc1cccc(OC)c1-n1c(-c2ccn(C)n2)nc(=O)c(C(=O)N2CCC(c3ncc(Cl)cc3F)C2)c1O (single isomer, unassigned) [Example 259, 5-[3-(5-chloro-3-fluoropyridin-2-yl)pyrrolidine-1-carbonyl]-1-(2,6-dimethoxyphenyl)-6-hydroxy-2-(1-methyl-1H-pyrazol-3-yl)-1,4-dihydropyrimidin-4-one]
COc1cccc(OC)c1-n1c(-c2cncc(Cl)c2)nc(=O)c(C(=O)N2CCC(c3ccc(F)cc3F)C2)c1O (single isomer, unassigned) [Example 260, 2-(5-chloropyridin-3-yl)-5-[3-(2,4-difluorophenyl)pyrrolidine-1-carbonyl]-1-(2,6-dimethoxyphenyl)-6-hydroxy-1,4-dihydropyrimidin-4-one]
